Laboratory results as given in patent US10544153B2, “Benzoic acid, benzoic acid derivatives and heteroaryl carboxylic acid conjugates of oxycodone, prodrugs, methods of making and use thereof” (KemPharm, Inc., priority 2014, dated 2020).

assay: Oral PK in rats: plasma concentrations of released oxycodone by LC-MS/MS; details: conjugate equivalent to 2 mg/kg freebase oxycodone

With COc1ccc2c3c1OC1C(OC(=O)C(C)c4cccc(Oc5ccccc5)c4)=CCC4(O)C(C2)N(C)CCC314 (mixture of isomers) [6-Fenoprofen-OC] as the compound, how does the AUC read?
Its AUC is 21.6 ng·h/mL.

What about the Cmax of the same compound?
The Cmax was 14.0 ng/mL.

And the tmax?
The tmax was 15 min.

With COc1ccc2c3c1OC1C(OC(=O)C(C)c4cccc(C(=O)c5ccccc5)c4)=CCC4(O)C(C2)N(C)CCC314 (mixture of isomers) [6-Ketoprofen-OC] as the compound, how does the AUC read?
The AUC was 25.5 ng·h/mL.

And the Cmax?
Its Cmax is 14.7 ng/mL.

What about the tmax of the same compound?
Its tmax is 15 min.

With COc1ccc2c3c1OC1C(OC(=O)C(C)c4ccc(CC(C)C)cc4)=CCC4(O)C(C2)N(C)CCC314 (mixture of isomers) [Conjugate 6-lbu-OC] as the compound, how does the AUC read?
Its AUC is 77.9 ng·h/mL.

What about the Cmax of the same compound?
The Cmax was 39.5 ng/mL.

And the tmax?
Its tmax is 26.4 min.

With COc1ccc2c3c1O[C@H]1C(OC(=O)/C=C/c4ccccc4)=CC[C@@]4(O)[C@@H](C2)N(C)CC[C@]314 [6-Cinnamate-OC] as the compound, how does the AUC read?
Its AUC is 55.9 ng·h/mL.

And the Cmax?
Its Cmax is 35.5 ng/mL.

And the tmax?
The tmax was 18 min.

same assay, conditions: relative to oxycodone (OC)

What does the source list for COc1ccc2c3c1OC1C(OC(=O)C(C)c4cccc(Oc5ccccc5)c4)=CCC4(O)C(C2)N(C)CCC314 (mixture of isomers) [6-Fenoprofen-OC]?
%-AUC of OC: 69%; %-Cmax of OC: 87%; %-tmax of OC: 83%

What does the source list for COc1ccc2c3c1OC1C(OC(=O)C(C)c4cccc(C(=O)c5ccccc5)c4)=CCC4(O)C(C2)N(C)CCC314 (mixture of isomers) [6-Ketoprofen-OC]?
%-AUC of OC: 81%; %-Cmax of OC: 91%; %-tmax of OC: 83%

Which results are given for COc1ccc2c3c1OC1C(OC(=O)C(C)c4ccc(CC(C)C)cc4)=CCC4(O)C(C2)N(C)CCC314 (mixture of isomers) [Conjugate 6-lbu-OC]?
%-AUC of OC: 83%; %-Cmax of OC: 62%; %-tmax of OC: 47%

Which “%-AUC of OC” value does the source give for COc1ccc2c3c1O[C@H]1C(OC(=O)/C=C/c4ccccc4)=CC[C@@]4(O)[C@@H](C2)N(C)CC[C@]314 [6-Cinnamate-OC] here?
Its value is 60%.

And the “%-Cmax of OC” value?
Its value is 56%.

And the “%-tmax of OC” value?
Its value is 32%.

assay: Tamper resistance: percent of OC released under tampering conditions, LC-MS/MS; type: physicochemical; details: 1N HCl, RT, 1 hour
Description: Effective abuse deterrent forms of drugs of abuse can also be resistant to chemical tampering. The prodrugs in the present technology also impart this characteristic. Several common tampering scenarios were employed and percent of OC released were determined by liquid chromatography with tandem mass spectrometry (LC-MS/MS). The results as shown in Table 7 indicated a very high degree of tamper resistance in the example OC prodrugs, releasing little to no OC.

For COc1ccc2c3c1OC1C(OC(=O)C(C)c4cccc(C(=O)c5ccccc5)c4)=CCC4(O)C(C2)N(C)CCC314 (mixture of isomers) [6-Ketoprofen-OC], which “percent of OC released” value is on record?
Its value is 2%.

Which “percent of OC released” value does the source give for COc1ccc2c3c1OC1C(OC(=O)C(C)c4ccc(CC(C)C)cc4)=CCC4(O)C(C2)N(C)CCC314 (mixture of isomers) [Conjugate 6-lbu-OC] here?
The value was 2%.

Which “percent of OC released” value does the source give for COc1ccc2c3c1O[C@H]1C(OC(=O)/C=C/c4ccccc4)=CC[C@@]4(O)[C@@H](C2)N(C)CC[C@]314 [6-Cinnamate-OC] here?
The value was 0%.

same assay, conditions: 5% Bicarbonate, RT, 1 hour

With COc1ccc2c3c1OC1C(OC(=O)C(C)c4cccc(C(=O)c5ccccc5)c4)=CCC4(O)C(C2)N(C)CCC314 (mixture of isomers) [6-Ketoprofen-OC] as the compound, how does the “percent of OC released” value read?
Its value is 3%.

Which “percent of OC released” value does the source give for COc1ccc2c3c1OC1C(OC(=O)C(C)c4ccc(CC(C)C)cc4)=CCC4(O)C(C2)N(C)CCC314 (mixture of isomers) [Conjugate 6-lbu-OC] here?
Its value is 2%.

Which “percent of OC released” value does the source give for COc1ccc2c3c1O[C@H]1C(OC(=O)/C=C/c4ccccc4)=CC[C@@]4(O)[C@@H](C2)N(C)CC[C@]314 [6-Cinnamate-OC] here?
Its value is <1%.

same assay, conditions: Water, RT, 1 hour

For COc1ccc2c3c1OC1C(OC(=O)C(C)c4cccc(C(=O)c5ccccc5)c4)=CCC4(O)C(C2)N(C)CCC314 (mixture of isomers) [6-Ketoprofen-OC], which “percent of OC released” value is on record?
Its value is 0%.

For COc1ccc2c3c1OC1C(OC(=O)C(C)c4ccc(CC(C)C)cc4)=CCC4(O)C(C2)N(C)CCC314 (mixture of isomers) [Conjugate 6-lbu-OC], which “percent of OC released” value is on record?
The value was 0%.

Which “percent of OC released” value does the source give for COc1ccc2c3c1O[C@H]1C(OC(=O)/C=C/c4ccccc4)=CC[C@@]4(O)[C@@H](C2)N(C)CC[C@]314 [6-Cinnamate-OC] here?
Its value is 0%.

same assay, conditions: Water, RT, 24 hours

With COc1ccc2c3c1OC1C(OC(=O)C(C)c4cccc(C(=O)c5ccccc5)c4)=CCC4(O)C(C2)N(C)CCC314 (mixture of isomers) [6-Ketoprofen-OC] as the compound, how does the “percent of OC released” value read?
Its value is <1%.

With COc1ccc2c3c1OC1C(OC(=O)C(C)c4ccc(CC(C)C)cc4)=CCC4(O)C(C2)N(C)CCC314 (mixture of isomers) [Conjugate 6-lbu-OC] as the compound, how does the “percent of OC released” value read?
The value was 0%.

With COc1ccc2c3c1O[C@H]1C(OC(=O)/C=C/c4ccccc4)=CC[C@@]4(O)[C@@H](C2)N(C)CC[C@]314 [6-Cinnamate-OC] as the compound, how does the “percent of OC released” value read?
Its value is 0%.

assay: Intranasal PK in rats: plasma concentrations of released oxymorphone by LC-MS/MS; details: Table 6, equivalent to 2 mg/kg freebase oxycodone

Which AUC does the source give for COc1ccc2c3c1OC1C(OC(=O)C(C)c4ccc(CC(C)C)cc4)=CCC4(O)C(C2)N(C)CCC314 (mixture of isomers) [Conjugate 6-lbu-OC] here?
Its AUC is 0.7 ng·h/mL.

What about the Cmax of the same compound?
Its Cmax is 1.0 ng/mL.

And the tmax?
The tmax was 30 min.

For COc1ccc2c3c1O[C@H]1C(OC(=O)/C=C/c4ccccc4)=CC[C@@]4(O)[C@@H](C2)N(C)CC[C@]314 [6-Cinnamate-OC], which AUC is on record?
Its AUC is 1.7 ng·h/mL.

What about the Cmax of the same compound?
The Cmax was 2.4 ng/mL.

What about the tmax of the same compound?
The tmax was 30 min.

same assay, conditions: Table 6, relative to oxycodone (OC)

For COc1ccc2c3c1OC1C(OC(=O)C(C)c4ccc(CC(C)C)cc4)=CCC4(O)C(C2)N(C)CCC314 (mixture of isomers) [Conjugate 6-lbu-OC], which “%-AUC of OC” value is on record?
Its value is 11%.

And the “%-Cmax of OC” value?
Its value is 11%.

And the “%-tmax of OC” value?
Its value is 143%.

With COc1ccc2c3c1O[C@H]1C(OC(=O)/C=C/c4ccccc4)=CC[C@@]4(O)[C@@H](C2)N(C)CC[C@]314 [6-Cinnamate-OC] as the compound, how does the “%-AUC of OC” value read?
Its value is 18%.

And the “%-Cmax of OC” value?
The value was 18%.

And the “%-tmax of OC” value?
Its value is 133%.

assay: Oral PK in rats: plasma concentrations of oxymorphone by LC-MS/MS; details: oxymorphone released, conjugate equivalent to 2 mg/kg freebase oxycodone

With COc1ccc2c3c1OC1C(OC(=O)C(C)c4cccc(Oc5ccccc5)c4)=CCC4(O)C(C2)N(C)CCC314 (mixture of isomers) [6-Fenoprofen-OC] as the compound, how does the AUC read?
Its AUC is 4.6 ng·h/mL.

And the Cmax?
The Cmax was 3.3 ng/mL.

What about the tmax of the same compound?
Its tmax is 15 min.

For COc1ccc2c3c1OC1C(OC(=O)C(C)c4cccc(C(=O)c5ccccc5)c4)=CCC4(O)C(C2)N(C)CCC314 (mixture of isomers) [6-Ketoprofen-OC], which AUC is on record?
The AUC was 4.3 ng·h/mL.

And the Cmax?
The Cmax was 3.7 ng/mL.

And the tmax?
The tmax was 15 min.

For COc1ccc2c3c1OC1C(OC(=O)C(C)c4ccc(CC(C)C)cc4)=CCC4(O)C(C2)N(C)CCC314 (mixture of isomers) [Conjugate 6-lbu-OC], which AUC is on record?
Its AUC is 8.4 ng·h/mL.

And the Cmax?
The Cmax was 3.7 ng/mL.

And the tmax?
Its tmax is 69 min.

What does the source list for COc1ccc2c3c1O[C@H]1C(OC(=O)/C=C/c4ccccc4)=CC[C@@]4(O)[C@@H](C2)N(C)CC[C@]314 [6-Cinnamate-OC]?
AUC: 9.2 ng·h/mL; Cmax: 4.3 ng/mL; tmax: 21 min

same assay, conditions: oxymorphone released, relative to oxycodone (OC)

What does the source list for COc1ccc2c3c1OC1C(OC(=O)C(C)c4cccc(Oc5ccccc5)c4)=CCC4(O)C(C2)N(C)CCC314 (mixture of isomers) [6-Fenoprofen-OC]?
%-AUC of OC: 67%; %-Cmax of OC: 68%; %-tmax of OC: 100%

What does the source list for COc1ccc2c3c1OC1C(OC(=O)C(C)c4cccc(C(=O)c5ccccc5)c4)=CCC4(O)C(C2)N(C)CCC314 (mixture of isomers) [6-Ketoprofen-OC]?
%-AUC of OC: 62%; %-Cmax of OC: 77%; %-tmax of OC: 100%

With COc1ccc2c3c1OC1C(OC(=O)C(C)c4ccc(CC(C)C)cc4)=CCC4(O)C(C2)N(C)CCC314 (mixture of isomers) [Conjugate 6-lbu-OC] as the compound, how does the “%-AUC of OC” value read?
The value was 83%.

What about the “%-Cmax of OC” value of the same compound?
The value was 59%.

What about the “%-tmax of OC” value of the same compound?
Its value is 131%.

Which “%-AUC of OC” value does the source give for COc1ccc2c3c1O[C@H]1C(OC(=O)/C=C/c4ccccc4)=CC[C@@]4(O)[C@@H](C2)N(C)CC[C@]314 [6-Cinnamate-OC] here?
The value was 91%.

And the “%-Cmax of OC” value?
The value was 68%.

And the “%-tmax of OC” value?
The value was 40%.

assay: Intranasal PK in rats (Table 4); details: title: oxymorphone released (released oxycodone), equivalent to 2 mg/kg freebase oxycodone

For COc1ccc2c3c1OC1C(OC(=O)C(C)c4ccc(CC(C)C)cc4)=CCC4(O)C(C2)N(C)CCC314 (mixture of isomers) [Conjugate 6-lbu-OC], which Cmax is on record?
The Cmax was 131.7 ng/mL.

What about the tmax of the same compound?
The tmax was 4.98 min.

With COc1ccc2c3c1O[C@H]1C(OC(=O)/C=C/c4ccccc4)=CC[C@@]4(O)[C@@H](C2)N(C)CC[C@]314 [6-Cinnamate-OC] as the compound, how does the Cmax read?
The Cmax was 497.2 ng/mL.

What about the tmax of the same compound?
Its tmax is 4.98 min.

same assay, conditions: title: oxymorphone released (released oxycodone), relative to oxycodone (OC)

Which results are given for COc1ccc2c3c1OC1C(OC(=O)C(C)c4ccc(CC(C)C)cc4)=CCC4(O)C(C2)N(C)CCC314 (mixture of isomers) [Conjugate 6-lbu-OC]?
%-Cmax of OC: 10%; %-tmax of OC: 100%

Which results are given for COc1ccc2c3c1O[C@H]1C(OC(=O)/C=C/c4ccccc4)=CC[C@@]4(O)[C@@H](C2)N(C)CC[C@]314 [6-Cinnamate-OC]?
%-Cmax of OC: 22%; %-tmax of OC: 100%
